Reference: ChEMBL document CHEMBL3351874, “Rational design of inhibitors of the bacterial cell wall synthetic enzyme GlmU using virtual screening and lead-hopping” (Bioorg Med Chem, 2014)

What was measured:
[1] = Inhibition of Haemophilus influenzae ATCC 51907 GlmU expressed in Escherichia coli BL21(DE3) incubated for 15 mins prior to MgCl2 addition measured after 30 mins by malachite green staining-based assay
[2] = Serum protein binding in human at 10 uM after 30 mins by ultrafiltration method; format: ADME; settings: read-out: PB (converted)
[3] = target: Bifunctional protein GlmU (Escherichia coli, UniProt C3SLB7); assay: Inhibition of Escherichia coli ATCC 27325 GlmU expressed in Escherichia coli HMS174(DE3) incubated for 15 mins prior to MgCl2 addition measured after 30 mins by malachite green staining-based assay
Bifunctional protein GlmU, sequence (C3SLB7 whole entry): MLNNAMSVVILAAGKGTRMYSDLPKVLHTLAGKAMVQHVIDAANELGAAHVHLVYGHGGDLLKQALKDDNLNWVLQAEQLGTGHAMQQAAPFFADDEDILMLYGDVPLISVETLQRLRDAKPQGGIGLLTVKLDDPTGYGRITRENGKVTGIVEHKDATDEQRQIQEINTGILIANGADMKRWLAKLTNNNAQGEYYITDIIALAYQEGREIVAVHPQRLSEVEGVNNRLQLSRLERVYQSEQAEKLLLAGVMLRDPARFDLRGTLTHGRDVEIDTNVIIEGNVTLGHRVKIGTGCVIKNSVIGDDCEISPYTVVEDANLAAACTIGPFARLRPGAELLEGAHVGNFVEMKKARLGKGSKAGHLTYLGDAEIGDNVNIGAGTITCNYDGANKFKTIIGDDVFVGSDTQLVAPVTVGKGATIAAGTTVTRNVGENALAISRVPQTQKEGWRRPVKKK

[4] = target: T1, Interleukin-1 receptor-associated kinase 4 (Homo sapiens, UniProt Q9NWZ3); assay: Inhibition of human IRAK4 incubated for 20 mins prior to MgCl2 addition measured after 90 mins by mobility shift assay
T1 sequence (Q9NWZ3 whole entry): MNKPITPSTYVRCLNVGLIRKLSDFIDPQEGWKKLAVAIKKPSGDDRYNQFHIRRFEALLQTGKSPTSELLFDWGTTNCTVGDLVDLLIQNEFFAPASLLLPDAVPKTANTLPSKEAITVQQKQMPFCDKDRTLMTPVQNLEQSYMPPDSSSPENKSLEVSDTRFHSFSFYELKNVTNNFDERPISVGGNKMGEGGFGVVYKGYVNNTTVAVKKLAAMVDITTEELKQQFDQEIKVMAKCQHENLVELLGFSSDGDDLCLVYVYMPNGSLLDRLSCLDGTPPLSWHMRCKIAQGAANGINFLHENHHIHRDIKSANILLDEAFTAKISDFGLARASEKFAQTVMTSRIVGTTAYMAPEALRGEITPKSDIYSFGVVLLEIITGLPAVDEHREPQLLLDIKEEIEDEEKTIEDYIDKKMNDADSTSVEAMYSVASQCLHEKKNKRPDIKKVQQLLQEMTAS

[5] = target: T2, Tyrosine-protein kinase JAK3 (Homo sapiens, UniProt P52333); assay: Inhibition of human JAK3 incubated for 20 mins prior to MgCl2 addition measured after 90 mins by mobility shift assay
T2 sequence (P52333 whole entry): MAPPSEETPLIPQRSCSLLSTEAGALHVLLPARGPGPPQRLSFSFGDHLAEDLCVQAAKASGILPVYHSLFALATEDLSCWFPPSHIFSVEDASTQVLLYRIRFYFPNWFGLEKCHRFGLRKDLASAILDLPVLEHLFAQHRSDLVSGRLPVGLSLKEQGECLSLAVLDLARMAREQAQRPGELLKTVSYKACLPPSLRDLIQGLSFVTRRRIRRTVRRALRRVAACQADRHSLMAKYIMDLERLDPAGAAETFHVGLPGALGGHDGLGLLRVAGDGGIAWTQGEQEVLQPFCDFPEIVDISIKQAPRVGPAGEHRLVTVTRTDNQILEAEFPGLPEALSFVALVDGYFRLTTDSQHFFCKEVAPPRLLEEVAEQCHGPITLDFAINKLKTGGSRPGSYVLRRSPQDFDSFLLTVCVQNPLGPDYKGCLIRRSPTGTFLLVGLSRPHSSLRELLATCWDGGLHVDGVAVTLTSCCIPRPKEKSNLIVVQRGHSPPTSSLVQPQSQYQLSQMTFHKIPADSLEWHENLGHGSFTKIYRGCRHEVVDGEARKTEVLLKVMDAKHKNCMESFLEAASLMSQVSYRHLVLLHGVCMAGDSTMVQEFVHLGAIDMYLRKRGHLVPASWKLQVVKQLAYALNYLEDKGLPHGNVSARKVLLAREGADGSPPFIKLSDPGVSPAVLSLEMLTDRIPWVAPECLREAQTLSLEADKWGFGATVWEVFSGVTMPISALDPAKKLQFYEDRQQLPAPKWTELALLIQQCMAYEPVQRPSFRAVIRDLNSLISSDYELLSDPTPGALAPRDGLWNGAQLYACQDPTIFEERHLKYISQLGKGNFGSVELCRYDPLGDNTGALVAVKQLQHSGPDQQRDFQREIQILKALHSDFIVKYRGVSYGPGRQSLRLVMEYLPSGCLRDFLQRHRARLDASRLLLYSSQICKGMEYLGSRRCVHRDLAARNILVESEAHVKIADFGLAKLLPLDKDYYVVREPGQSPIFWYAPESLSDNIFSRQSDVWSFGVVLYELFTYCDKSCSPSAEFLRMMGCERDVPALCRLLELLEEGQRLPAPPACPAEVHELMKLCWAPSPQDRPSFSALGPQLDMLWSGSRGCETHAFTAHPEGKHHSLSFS

[6] = target: Cyclin-dependent kinase 1 (Homo sapiens, UniProt P06493); assay: Inhibition of human CDK1 incubated for 20 mins prior to MgCl2 addition measured after 90 mins by mobility shift assay
Cyclin-dependent kinase 1, sequence (P06493 whole entry): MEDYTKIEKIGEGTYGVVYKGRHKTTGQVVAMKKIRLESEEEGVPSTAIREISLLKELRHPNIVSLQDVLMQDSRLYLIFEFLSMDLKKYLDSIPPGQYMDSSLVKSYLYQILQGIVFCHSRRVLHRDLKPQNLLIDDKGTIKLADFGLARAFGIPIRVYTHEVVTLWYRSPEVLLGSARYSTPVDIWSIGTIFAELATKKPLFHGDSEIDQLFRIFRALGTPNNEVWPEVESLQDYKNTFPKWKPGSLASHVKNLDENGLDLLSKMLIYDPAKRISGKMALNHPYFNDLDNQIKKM

[7] = target: Tyrosine-protein kinase JAK1 (Homo sapiens, UniProt P23458); assay: Inhibition of human JAK1 incubated for 20 mins prior to MgCl2 addition measured after 90 mins by mobility shift assay
Tyrosine-protein kinase JAK1, sequence (P23458 whole entry): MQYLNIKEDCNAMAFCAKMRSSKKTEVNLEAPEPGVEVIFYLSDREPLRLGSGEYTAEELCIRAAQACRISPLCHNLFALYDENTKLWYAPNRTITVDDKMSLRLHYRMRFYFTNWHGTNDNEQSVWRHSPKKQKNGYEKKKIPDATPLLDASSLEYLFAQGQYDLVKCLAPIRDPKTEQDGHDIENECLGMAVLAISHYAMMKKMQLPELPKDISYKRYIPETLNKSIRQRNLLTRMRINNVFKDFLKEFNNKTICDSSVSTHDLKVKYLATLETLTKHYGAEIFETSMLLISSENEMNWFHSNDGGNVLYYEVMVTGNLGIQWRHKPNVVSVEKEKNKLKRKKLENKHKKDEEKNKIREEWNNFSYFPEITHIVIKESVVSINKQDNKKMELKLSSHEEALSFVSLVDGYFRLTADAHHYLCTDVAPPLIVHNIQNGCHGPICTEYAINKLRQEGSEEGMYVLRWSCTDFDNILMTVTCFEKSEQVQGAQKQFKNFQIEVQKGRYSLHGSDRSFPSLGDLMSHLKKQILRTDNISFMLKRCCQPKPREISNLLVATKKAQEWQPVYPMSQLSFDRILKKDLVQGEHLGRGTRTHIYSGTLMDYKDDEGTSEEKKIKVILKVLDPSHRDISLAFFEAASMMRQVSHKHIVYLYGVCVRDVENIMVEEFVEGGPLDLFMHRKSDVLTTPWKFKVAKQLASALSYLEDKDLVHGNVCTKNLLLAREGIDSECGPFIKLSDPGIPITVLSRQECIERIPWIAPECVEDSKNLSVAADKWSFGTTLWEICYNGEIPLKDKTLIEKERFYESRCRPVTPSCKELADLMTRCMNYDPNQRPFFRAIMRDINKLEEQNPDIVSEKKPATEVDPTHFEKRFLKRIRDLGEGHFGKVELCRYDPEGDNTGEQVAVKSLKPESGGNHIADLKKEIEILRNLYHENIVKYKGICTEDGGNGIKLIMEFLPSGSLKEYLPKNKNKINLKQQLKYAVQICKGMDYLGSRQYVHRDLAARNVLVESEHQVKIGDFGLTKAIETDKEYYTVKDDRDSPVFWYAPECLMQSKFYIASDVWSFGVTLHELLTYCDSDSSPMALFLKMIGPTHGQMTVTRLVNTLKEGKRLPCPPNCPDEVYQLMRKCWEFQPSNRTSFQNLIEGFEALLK

[8] = target: Aurora kinase B (Homo sapiens, UniProt Q96GD4); assay: Inhibition of human AURKB incubated for 20 mins prior to MgCl2 addition measured after 90 mins by mobility shift assay
Aurora kinase B, sequence (Q96GD4 whole entry): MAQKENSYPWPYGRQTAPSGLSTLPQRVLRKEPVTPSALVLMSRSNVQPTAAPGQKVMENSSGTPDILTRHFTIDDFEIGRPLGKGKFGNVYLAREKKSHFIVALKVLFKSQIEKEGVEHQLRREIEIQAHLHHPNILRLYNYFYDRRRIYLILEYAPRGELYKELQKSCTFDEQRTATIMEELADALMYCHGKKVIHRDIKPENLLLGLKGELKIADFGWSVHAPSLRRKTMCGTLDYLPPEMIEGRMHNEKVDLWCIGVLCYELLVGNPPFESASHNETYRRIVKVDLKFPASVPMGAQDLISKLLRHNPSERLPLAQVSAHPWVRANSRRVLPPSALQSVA

[9] = target: Tyrosine-protein kinase JAK2 (Homo sapiens, UniProt O60674); assay: Inhibition of human JAK2 incubated for 20 mins prior to MgCl2 addition measured after 90 mins by mobility shift assay
Tyrosine-protein kinase JAK2, sequence (O60674 whole entry): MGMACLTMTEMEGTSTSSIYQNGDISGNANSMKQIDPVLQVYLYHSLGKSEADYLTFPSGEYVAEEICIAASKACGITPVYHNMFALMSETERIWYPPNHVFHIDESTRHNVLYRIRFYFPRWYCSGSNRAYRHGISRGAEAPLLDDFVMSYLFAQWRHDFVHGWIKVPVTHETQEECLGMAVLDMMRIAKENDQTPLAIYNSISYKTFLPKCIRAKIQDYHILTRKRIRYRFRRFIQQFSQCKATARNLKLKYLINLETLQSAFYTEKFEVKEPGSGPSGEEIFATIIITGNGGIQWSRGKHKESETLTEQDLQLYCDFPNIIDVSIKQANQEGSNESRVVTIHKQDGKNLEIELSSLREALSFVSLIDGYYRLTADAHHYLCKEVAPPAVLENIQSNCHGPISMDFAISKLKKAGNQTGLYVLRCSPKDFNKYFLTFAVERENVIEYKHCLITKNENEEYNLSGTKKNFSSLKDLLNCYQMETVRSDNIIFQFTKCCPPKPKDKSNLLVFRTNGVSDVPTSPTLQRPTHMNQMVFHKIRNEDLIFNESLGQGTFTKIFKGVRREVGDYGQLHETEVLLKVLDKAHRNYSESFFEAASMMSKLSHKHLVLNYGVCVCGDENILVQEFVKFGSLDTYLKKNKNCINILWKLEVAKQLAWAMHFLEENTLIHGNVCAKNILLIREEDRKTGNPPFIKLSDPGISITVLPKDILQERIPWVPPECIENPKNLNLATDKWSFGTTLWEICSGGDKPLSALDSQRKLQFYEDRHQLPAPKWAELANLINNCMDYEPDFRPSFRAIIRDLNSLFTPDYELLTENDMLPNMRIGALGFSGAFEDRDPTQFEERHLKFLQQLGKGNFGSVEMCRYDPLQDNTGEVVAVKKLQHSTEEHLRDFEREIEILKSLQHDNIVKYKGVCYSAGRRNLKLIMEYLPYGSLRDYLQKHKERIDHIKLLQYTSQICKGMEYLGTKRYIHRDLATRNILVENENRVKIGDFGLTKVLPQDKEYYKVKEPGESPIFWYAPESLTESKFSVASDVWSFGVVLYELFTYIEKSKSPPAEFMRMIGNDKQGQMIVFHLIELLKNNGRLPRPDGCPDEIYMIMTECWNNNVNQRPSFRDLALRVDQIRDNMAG

[10] = target: Interleukin-1 receptor-associated kinase 1 (Homo sapiens, UniProt P51617); assay: Inhibition of human IRAK1 incubated for 20 mins prior to MgCl2 addition measured after 90 mins by mobility shift assay
Interleukin-1 receptor-associated kinase 1, sequence (P51617 whole entry): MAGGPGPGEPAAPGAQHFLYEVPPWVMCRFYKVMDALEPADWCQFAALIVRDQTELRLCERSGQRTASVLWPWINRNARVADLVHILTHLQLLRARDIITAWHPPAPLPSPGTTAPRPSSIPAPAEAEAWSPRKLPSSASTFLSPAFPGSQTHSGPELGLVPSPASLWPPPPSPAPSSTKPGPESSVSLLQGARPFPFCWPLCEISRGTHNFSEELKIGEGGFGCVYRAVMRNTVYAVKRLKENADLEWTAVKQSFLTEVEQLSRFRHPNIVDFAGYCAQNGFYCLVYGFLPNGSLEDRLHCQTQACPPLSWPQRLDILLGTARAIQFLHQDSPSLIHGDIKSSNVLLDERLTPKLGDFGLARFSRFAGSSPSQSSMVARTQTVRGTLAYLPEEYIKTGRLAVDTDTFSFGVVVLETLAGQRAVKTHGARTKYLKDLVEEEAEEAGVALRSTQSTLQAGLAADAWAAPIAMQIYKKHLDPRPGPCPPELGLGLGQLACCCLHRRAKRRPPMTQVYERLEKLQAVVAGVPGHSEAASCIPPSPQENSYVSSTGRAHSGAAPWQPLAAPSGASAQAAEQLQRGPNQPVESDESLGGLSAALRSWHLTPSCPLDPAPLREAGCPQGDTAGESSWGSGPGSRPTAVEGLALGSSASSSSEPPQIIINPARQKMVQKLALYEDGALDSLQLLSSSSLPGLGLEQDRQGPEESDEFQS

[11] = target: Cyclin-dependent kinase 2 (Homo sapiens, UniProt P24941); assay: Inhibition of human CDK2 incubated for 20 mins prior to MgCl2 addition measured after 90 mins by mobility shift assay
[12] = target: Cyclin-dependent kinase 9 (Homo sapiens, UniProt P50750); assay: Inhibition of human CDK9 incubated for 20 mins prior to MgCl2 addition measured after 90 mins by mobility shift assay
Cyclin-dependent kinase 9, sequence (P50750 whole entry): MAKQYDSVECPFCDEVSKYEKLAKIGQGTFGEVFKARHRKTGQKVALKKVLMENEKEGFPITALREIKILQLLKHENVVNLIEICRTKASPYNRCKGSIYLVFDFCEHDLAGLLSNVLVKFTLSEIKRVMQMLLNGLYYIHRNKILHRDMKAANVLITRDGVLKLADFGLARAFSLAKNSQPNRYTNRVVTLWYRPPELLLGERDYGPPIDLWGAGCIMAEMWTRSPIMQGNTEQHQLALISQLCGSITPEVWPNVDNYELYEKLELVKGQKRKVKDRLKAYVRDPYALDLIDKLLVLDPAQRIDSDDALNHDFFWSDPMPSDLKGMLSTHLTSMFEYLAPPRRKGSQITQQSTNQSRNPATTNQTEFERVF

SMILES: COc1cc2c(Nc3ccc(NC(=O)c4ccccc4)cc3)nc(NCCCn3ccnc3)nc2cc1O
- IC50 [1]: 1120 nM
- fraction unbound at 0.5 h, 10 µM [2]: 0.012
- IC50 [3]: 4.5 µM

SMILES: COc1cc(C(=O)Nc2ccc(NC(=O)c3ccccc3)cc2)c(N)cc1O
- IC50 [1]: 6100 nM
- fraction unbound at 0.5 h, 10 µM [2]: 0.011
- IC50 [4]: > 30 µM
- IC50 [5]: > 30 µM
- IC50 [6]: > 30 µM
- IC50 [7]: > 30 µM
- IC50 [8]: > 30 µM
- IC50 [3]: 5.9 µM
- IC50 [9]: > 30 µM
- IC50 [10]: > 30 µM
- IC50 [11]: > 30 µM
- IC50 [12]: > 30 µM

SMILES: COc1cc(C(=O)Nc2ccc(NC(=O)c3ccccn3)cc2)cc(N2CCC(=O)NC2=O)c1
- IC50 [1]: 71 nM
- fraction unbound at 0.5 h, 10 µM [2]: 0.097
- IC50 [4]: > 30 µM
- IC50 [5]: > 30 µM
- IC50 [6]: > 30 µM
- IC50 [7]: > 30 µM
- IC50 [8]: 14.3 µM
- IC50 [3]: 1.7 µM
- IC50 [9]: > 30 µM
- IC50 [10]: > 30 µM
- IC50 [11]: > 30 µM
- IC50 [12]: > 30 µM

SMILES: COc1cc2c(Nc3ccc(NC(=O)c4ccccc4)cc3)nc(N)nc2cc1O
- IC50 [1]: 1700 nM
- fraction unbound at 0.5 h, 10 µM [2]: 0.023
- IC50 [4]: > 30 µM
- IC50 [5]: > 30 µM
- IC50 [6]: > 30 µM
- IC50 [7]: > 30 µM
- IC50 [8]: > 30 µM
- IC50 [3]: 10.5 µM
- IC50 [9]: > 30 µM
- IC50 [10]: > 30 µM
- IC50 [11]: > 30 µM
- IC50 [12]: > 30 µM

SMILES: COc1cc(C(=O)Nc2ccc(NC(=O)c3ccccn3)cc2)cc(-c2nn[nH]n2)c1
- IC50 [1]: 550 nM
- fraction unbound at 0.5 h, 10 µM [2]: 0.032
- IC50 [3]: 21 µM

SMILES: COc1cc2c(Nc3ccc(NC(=O)c4ccccc4)cc3)nc(Cc3ccccc3)nc2cc1O
- IC50 [1]: 1800 nM
- fraction unbound at 0.5 h, 10 µM [2]: < 0.01
- IC50 [3]: 4.8 µM

SMILES: COc1cc(C(=O)Nc2ccc(NC(=O)c3ccccn3)cc2)cc(-c2cnc(=O)[nH]c2)c1
- IC50 [1]: 980 nM
- fraction unbound at 0.5 h, 10 µM [2]: < 0.01
- IC50 [3]: 4.2 µM

SMILES: COc1cc(C(=O)Nc2ccc(NC(=O)c3ccccn3)cc2)ccc1O
- IC50 [1]: 510 nM
- fraction unbound at 0.5 h, 10 µM [2]: 0.016
- IC50 [4]: > 30 µM
- IC50 [5]: > 30 µM
- IC50 [6]: > 30 µM
- IC50 [7]: > 30 µM
- IC50 [8]: 5.91 µM
- IC50 [3]: 8.2 µM
- IC50 [9]: > 30 µM
- IC50 [10]: > 30 µM
- IC50 [11]: > 30 µM
- IC50 [12]: > 30 µM

SMILES: COc1cc2c(Nc3ccc(NC(=O)c4ccccc4)cc3)ncnc2cc1OCC(N)=O
- IC50 [1]: > 22000 nM
- IC50 [4]: > 30 µM
- IC50 [5]: > 30 µM
- IC50 [6]: > 30 µM
- IC50 [7]: > 30 µM
- IC50 [8]: 0.155 µM
- IC50 [3]: > 22 µM
- IC50 [9]: > 30 µM
- IC50 [10]: > 30 µM
- IC50 [11]: > 30 µM
- IC50 [12]: > 30 µM

SMILES: COc1cc(C(=O)Nc2ccc(NC(=O)c3ccccc3)cc2)ccc1OCC(=O)O
- IC50 [1]: 23000 nM
- IC50 [4]: > 30 µM
- IC50 [5]: > 30 µM
- IC50 [6]: > 30 µM
- IC50 [7]: > 30 µM
- IC50 [8]: > 30 µM
- IC50 [3]: > 67 µM
- IC50 [9]: > 30 µM
- IC50 [10]: > 30 µM
- IC50 [11]: > 30 µM
- IC50 [12]: > 30 µM

SMILES: O=c1[nH]cc(-c2cccc(Br)c2)c(=O)[nH]1
- IC50 [1]: 50000 nM

SMILES: COc1cc2c(Nc3ccc(NC(=O)c4ccccc4)cc3)ncnc2cc1O
- IC50 [1]: 260 nM
- IC50 [4]: > 30 µM
- IC50 [5]: > 30 µM
- IC50 [6]: > 30 µM
- IC50 [7]: > 30 µM
- IC50 [8]: 0.275 µM
- IC50 [3]: 1.3 µM
- IC50 [9]: > 30 µM
- IC50 [10]: > 30 µM
- IC50 [11]: > 30 µM
- IC50 [12]: > 30 µM
